Key:
[1] = Drug loading amount by thermogravimetric analysis (TGA); format: physicochemical; conditions: for Loading percent in LMC-2: drug loaded in LMC-2, TGA; for Loading percent in PMC: drug loaded in PMC, TGA
Description: (§1) The loaded mesoporous carbons were dried, the external surface cleaned, and then placed into 130 cm^3 of simulated gastric fluid without pepsin (SGF; 0.2% w/v NaCl, aqueous HCl, pH adjusted to ˜1.5) or into simulated intestinal fluid (SIF) at ambient temperature for 30-50 hours under mild stirring (˜60 rpm) for in-vitro drug release. The drug concentrations were measured by UV-Vis spectroscopy utilizing a calibration curve on absorbance at various concentrations of the drug in SGF or SIF medium.
The drug loading amount in PMC and LMC-2 were measured with the help of thermogravimetric analysis (TGA). Pure mesoporous carbons, pure drugs, and drug-loaded carbons were heated under an inert atmosphere (N2) up to 1000° C., wherein the drug loading amount was calculated by comparing the relative amount of residues.

[2] = cited from earlier work
[3] = In-vitro drug release from loaded mesoporous carbon in SGF or SIF (UV-Vis), with kinetic and diffusivity analysis; format: physicochemical
Description: as §1
In order to further investigate the diffusivity of the loaded drugs in the releasing media, Fick's laws of diffusion in spherical and cylindrical coordinates were utilized. Based on the assumption that drug-loaded mesoporous carbons are monolithic systems, the release profile in the spherical system can be mathematically expressed as (J. Siepmann, F. Siepmann, J., Controlled Release, 161 (2012) 351-362.):
versus t will yield the diffusivity values for both types of systems. […] As the centers of micelles are believed to give rise to the mesopores, and because the micelles are approximately spherical in shape, a distorted spherical to cylindrical entity could serve as the closest approximation of the pore geometry. Based on these assumptions, diffusivity values have been calculated from all the release patterns for both spherical and cylindrical systems.
versus t which also yields the diffusivity values of antipyrine from LMC-2 and PMC at three temperatures of 25° C., 35.5° C., and 50° C. Because of the surfactant templating, it was assumed that the mesopore geometries have a spherical to cylindrical shape, which became a basis for calculating the diffusivity values from each of the patterns in both cylindrical and spherical systems.
In order to provide further insight on the temperature dependence of diffusivity, calculations were made using the Eyring equation by assuming antipyrine diffusion from the pores of the carbons is an activation process,
where Eα is the activation energy.

[4] = N2 adsorption-desorption on drug-loaded mesoporous carbons (pore filling); format: physicochemical
Description: In order to further investigate the occupancy of pore space by drug molecules, N2 adsorption-desorption experiments were performed on the drug-loaded mesoporous carbons, and the pore size distribution was calculated by the NLDFT method.

[5] = from LMC-1, SGF, within around 60% of total drug release

Cc1cc(=O)n(-c2ccccc2)n1C [Antipyrine]
Loading percent in LMC-2 [1]: 12%
Loading percent in PMC [1]: 22%
completion of release ([2]; from porous silica): 300 min

C[C@H](CS)C(=O)N1CCC[C@H]1C(=O)O [Captopril]
Loading percent in LMC-2 [1]: 5%
Loading percent in PMC [1]: 13%
Diffusivity, Cylindrical ([3]; LMC/SGF): 2 × 10^−22 m^2/s
Diffusivity, Spherical ([3]; LMC/SGF): 9 × 10^−23 m^2/s
Diffusivity, Cylindrical ([3]; PMC/SGF): 2 × 10^−23 m^2/s
Diffusivity, Spherical ([3]; PMC/SGF): 7 × 10^−24 m^2/s
time to complete release ([3]; from LMC, SGF): < 20 h
order of release (Korsmeyer-Peppas equation) [3, 5]: 0.42
release rate constant (Korsmeyer-Peppas equation) [3, 5]: 3.9
time to complete release ([3]; from PMC, SGF): ~40 h
pore filling by drug ([4]; PMC): highest pore filling

NS(=O)(=O)c1cc(C(=O)O)c(NCc2ccco2)cc1Cl [Furosemide]
Loading percent in LMC-2 [1]: 6.6%
Loading percent in PMC [1]: 6.7%
Diffusivity, Cylindrical ([3]; LMC/SGF): 6 × 10^−22 m^2/s
Diffusivity, Spherical ([3]; LMC/SGF): 4 × 10^−22 m^2/s
Diffusivity, Cylindrical ([3]; PMC/SGF): 7 × 10^−23 m^2/s
Diffusivity, Spherical ([3]; PMC/SGF): 4 × 10^−23 m^2/s
Diffusivity, Cylindrical ([3]; PMC/SIF): 2 × 10^−23 m^2/s
Diffusivity, Spherical ([3]; PMC/SIF): 1 × 10^−23 m^2/s
initial burst, drug released within 1.5 hours ([3]; SGF): 60%
time to complete release ([3]; from LMC, SGF): less than 10 hours
time to complete release ([3]; from PMC, SGF): 30 to 40 h
time to complete release ([3]; from PMC, SIF (pH ~6.8)): 30 to 40 h
order of magnitude of diffusivity ([3]; release from LMC): 10^−22 m^2/s
order of magnitude of diffusivity ([3]; release from PMC in both SGF and SIF): 10^−23 m^2/s
pore filling by drug ([4]; both types of carbons (PMC, LMC-2)): minimum pore filling
release completed ([2]; from mesoporous silica nanoparticles, pH range 5.5 to 7.4): less than 100 minutes

From patent US20140227325A1, “LIGNIN-DERIVED POROUS CARBON COMPOSITION, METHODS OF PREPARATION, AND USE THEREOF” (UT-BATTELLE, LLC, priority 2013, published 2014)
